Laboratory results reported in patent publication US7335380B2 (Synthon IP Inc., priority 2000, dated 2008).
Values after ≈ are worked out from the molar mass of the structure shown. Values belong to the compound of their own block, whether it stands above or below them.

How the values were obtained:
[1] = Solid-state stability of crystalline Form II on standing; assay type: physicochemical; conditions: after 1 month standing at 60° C.
Description: The amlodipine free base can be of any form including crystalline form I, crystalline form II or amorphous. […] This form corresponds to the material described by […] and Deasy. […] Although it is possible to convert Form II into Form I by applying sufficiently high temperatures, generally over 100 C., Form II is generally stable at ambient conditions and even at moderately elevated temperatures. For instance, the Form II is stable after 1 month standing at 60° C. Accordingly, Form II is thus useful in manufacturing of pharmaceutical final forms. The amlodipine free base in the tablet of the present invention can be of a single type or can be a mixture. For example, a mixture of crystalline Forms I and II.

[2] = Stickiness comparison (average punch residue of tablets); assay type: physicochemical; conditions: tablets with microcrystalline cellulose and calcium sulphate dihydrate, 20 mm punch, 400 mg tablet, slope over runs of 50-300 tablets
Description: An amlodpine free base tablet according to the present invention is preferably a low punch residue tablet. A “low punch residue” as used herein means that the average amount of amlodipine left on a tablet punch is not more than 1 μg/cm^2 per tablet based on a 20 mm round flat punch with a compression force of 15 kilo-newtons. Preferably, the tablet has an average punch residue of 0.7 μg/cm^2 per tablet, more preferably 0.6 μg/cm^2 per tablet. The amount of amlodipine residue can be measured by the process described in EP 244 944. In general the method involves washing the punch after runs of 50, 100, 150, 200, 250 and 300 tablets, using methanol and an ultrasonic bath. The amount of amlodipine in the samples is measured by uv and the total amount of amlodipine extracted from both the upper and lower punch is plotted against the amount of tablets made. An average value for amlodipine residue (stickiness) is calculated from the slope of the regression line by forcing the y-intercept of the line through zero.
After 50 tablets, the tablet material was extracted from the punches using methanol and an ultrasonic bath. […] The extracts together with Amlodipine calibration samples were measured spectrometrically. […] An average value for stickiness was calculated from the slope of the regression line by forcing the y-intercept of the line through zero.

[3] = solid amlodipine free base; Int. J. of Pharmaceutics 133, 71-83 (1996); cited from earlier work

- stability of crystalline form [1]: stable
Compound: CCOC(=O)C1=C(COCCN)NC(C)=C(C(=O)OC)C1c1ccccc1Cl (stereo not shown) [Form II]

- Average residue (stickiness) [2]: 1.16 μg ADP.cm^−2.tablet^−1
Compound: CCOC(=O)C1=C(COCCN)NC(C)=C(C(=O)OC)C1c1ccccc1Cl (stereo not shown) [amlodipine besylate]

- Average residue (stickiness) ([2]; listed as Amlodipine base): 0.55 μg ADP.cm^−2.tablet^−1
Compound: CCOC(=O)C1=C(COCCN)NC(C)=C(C(=O)OC)C1c1ccccc1Cl (stereo not shown) [amlodipine free base, 2-[(2-aminoethoxy)methyl]-4-(2-chlorophenyl)-3-ethoxycarbonyl-5-methoxycarbonyl-6-methyl-1,4-dihydropyridine]
- aqueous solubility [3]: 77.4 µg/mL (≈ 189 µM)
